Measured values reported in patent US10683553B2, “Method for determining sensitivity to simultaneous inhibitor against PARP and Tankyrase” (THE ASAN FOUNDATION, priority 2015, dated 2020).

How the values were obtained:
Assay type in all cases: cell-based
[1] = system: HCT116 colon cancer cell line; assay: MTS cell viability / IC50; conditions: Homo sapiens, HCT-116
Description: The present inventors conducted an in vitro cell base assay to analyze the anticancer activity of Compound A, which is a novel PARP/Tankyrase simultaneous inhibitor, in 18 human colon cancer cell lines (Korean Cell Line Bank and ATCC purchased), and the cell viability and IC50 of the cell lines for Compound A, the novel PARP/Tankyrase simultaneous inhibitor, were measured.
As the experimental conditions and methods, a total of 18 human colon cancer cell lines were cultured in RPMI1640 (Roswell Park Memorial Institute 1640; 10% FBS, 1% penicillin/streptomycin), and each cell line was cultured in 96 well plate for 2×10^3 per well at 37° C. for 24 hours and the novel PARP/Tankyrase simultaneous inhibitor, Compound A, was diluted by a multiple of 2 at a maximum of 100 μM and a minimum of 0.390625 μM (100 μM, 50 μM, 25 μM, 12.5 μM, 6.25 μM, 3.125 μM, 1.5625 μM, 0.78125 μM and 0.390625 μM). After the treatment, it was cultured at 37° C. for 72 hours. As for the drug treatment group and non-treatment group, the cell viability of each cell line was measured by MTS analysis (Promega, CellTiter 96 AQeous One Solution) and the IC50 of each cell line was measured using the PRISM program.
The present inventors analyzed the correlation of 18 human colon cancer cell lines, an anti-cancer effect of Compound A which is a novel PARP/Tankyrase simultaneous inhibitor and the genotype of the p53 gene through an in vitro cell base assay in the same experimental method as Example 1 in 18 human colon cancer cell lines.

[2] = system: SW620 human colon cancer cell line; assay: Trypan blue apoptosis with overexpressed mutant LIG4 (G833A or T1704C); conditions: SW620 overexpressing LIG4 mutant G833A or T1704C vs control group (empty); 25 μM and 50 μM, 48 hours
Source text: In order to analyze the degree of apoptosis of Compound A, which is a novel PARP/Tankyrase simultaneous inhibitor, when the p53 genotype is a mutant type and an LIG4 genotype is a mutant type, the present inventors treated a novel PARP/Tankyrase simultaneous inhibitor, Compound A, and the competitive drug PARP inhibitor, olaparib, while overexpressing an LIG4 mutant type in the SW620 human colon cancer cell line in which the p53 gene is a mutant type and an LIG4 genotype is a normal type. Then, the number of cells was measured by trypan blue staining assay to confirm the degree of apoptosis. The conditions and methods of the above experiment were as follows: SW620 human colon cancer cell line in which the p53 gene is a mutant type and the LIG4 gene is a normal type was cultured in RPMI1640 (10% FBS, 1% penicillin/streptomycin) and cultured in a 60 mm plate at 1×10^5 per well for 24 hours at 37° C. G833A or T1704C plasmid DNA in which an LIG4 genotype is a mutant type was infused into cells by means of Lipofectamin 2000 (Invitrogen), and then overexpressed at 37° C. for 48 hours. Then, the cells were treated with each of 25 μM and 50 μM of Compound A, which is a novel PARP/Tankyrase simultaneous inhibitor and olaparib, a competitive drug PARP inhibitor. After 48 hours of culturing, the number of cells was measured by trypan blue staining and the degree of apoptosis was confirmed.

[3] = system: HCT116 human colon cancer cell line; assay: Western blot of r-H2AX and cleaved caspase 3; conditions: 50 μM, 48 hours
Source text: (§1) In order to analyze the degree of DNA damage and the degree of apoptosis of Compound A, which is a novel PARP/Tankyrase simultaneous inhibitor, when the p53 gene is a normal type and the LIG4 gene is a mutant type, the present inventors treated a novel PARP/Tankyrase simultaneous inhibitor, Compound A, and the competitive drug PARP inhibitor; olaparib, in the HCT116 human colon cancer cell line in which the p53 gene and an LIG4 gene are normal types and in the RKO human colon cancer cell line in which the p53 gene is a normal type and an LIG4 gene is a mutant type, and then confirmed the DNA damage with the expression level of r-H2Ax by western blotting method and confirmed the degree of apoptosis with the expression level of cleaved caspase 3. The conditions and method of the experiment were as follows: The HCT116 human colon cancer cell line in which the p53 gene and an LIG4 gene are normal types and the RKO human colon cancer cell line in which the p53 gene is a normal type and an LIG4 gene is a mutant type were cultured in RPMI1640 (10% FBS, 1% penicillin/streptomycin) and cultured in a 60 mm plate at 1×10^5 per well for 24 hours at 37° C. Compound A, which is a novel PARP/Tankyrase simultaneous inhibitor, and olaparib, which is a competitive drug PARP inhibitor, were treated with 50 μM each and were cultured for 48 hours. Then, the cells were obtained using a centrifuge. Each cell thus obtained was dissolved using an RIPA buffer, and the proteins were extracted using a high-speed centrifuge. 30 μg protein per cell was electrophoresed by western blot method to separate proteins and transferred to PDVF membrane. The r-H2AX, truncated caspase 3, and b-actin antibody were diluted with each 1:2000 in 5% skim milk. Then, the cells were reacted at 4° C. for 12 hours and then washed three times for 15 minutes with TBS-T buffer. The secondary antibody was diluted with each 1:2000 ratio in 5% skim milk and reacted at room temperature for 2 hours. It was washed with TBS-T buffer three times for 15 minutes to induce luminescence of PDVF membrane using ECL (Enhanced Chemiluminescence) buffer solution to develop protein expression on each anti-body using an X-ray film.

[4] = system: RKO human colon cancer cell line; assay: Western blot of r-H2AX and cleaved caspase 3; conditions: 50 μM, 48 hours
Source text: as §1

Question: `CCOc1cc(CN(C)C)cc2[nH]c(=O)c3c(c12)NCCC3` [Compound A, 8-[(dimethylamino)methyl]-10-ethoxy-1,2,3,4-tetrahydrobenzo[h][1,6]naphthyridin-5(6H)-one] was tested. Which IC50 ([1]; HCT116, p53 Wild-type cell line) did it give?
Answer: Its IC50 is 13.2 µM.

Question: What about the IC50 ([1]; HCT116, MTS, 72 hours) of the same molecule?
Answer: Its IC50 is 13.2 µM.

Question: What about the “degree of apoptosis (trypan blue cell count)” value [2] of the same molecule?
Answer: The value was “no change in the apoptosis”.

Question: And the “expression amount of truncated caspase 3 (western blot)” value [3]?
Answer: The value was “increased expression amount of the truncated caspase 3”.

Question: And the “expression of r-H2AX (western blot)” value [3]?
Answer: Its value is “increased expression of r-H2AX than the group treated with olaparib”.

Question: And the “expression amount of truncated caspase 3 (western blot)” value [4]?
Answer: Its value is “increased expression amount of the truncated caspase 3”.

Question: What about the “expression of r-H2AX (western blot)” value [4] of the same molecule?
Answer: The value was “increased expression of r-H2AX than the group treated with olaparib”.
